According to article PMC11882969 (Nature Communications, 2025):
Values joined by “and” are separate entries in the source; they are usually repeats but may differ in a detail not shown here. Equal values may be shown once.

What was measured:
[1] = in vitro; conditions: mouse, pH 7.4
Method: Compounds were added to one chamber and the same volume of PBS buffer pH 7.4 to the other chamber. A standard solution was created by mixing an aliquot of spiked plasma with blank buffer without dialysis. […] The stability samples were immediately diluted with acetonitrile and stored at 4 °C until LC-MS/MS analysis. All samples were diluted 5-fold with 90% acetonitrile with internal standard with subsequent plasma proteins sedimentation by centrifuging at 5,796 g for 5 min. Supernatants were analyzed using HPLC system coupled with tandem mass spectrometer. The percentage of plasma protein-bound compound, recovery and stability were calculated using following equations:7 ProteinBinding=1−arearatioinbuffer/arearatioinplasma×100 8 Recovery=arearatioinbuffer+arearatioinplasma/arearatioinstabilitysample×100 9 Stability=arearatioinrecoverysample/arearatioinstabilitysample×100

[2] = biological target: panel of 320 non-olfactory GPCRs (Homo sapiens, UniProt P49682); type: cell-based
[3] = biological target: panel of 320 non-olfactory GPCRs (Homo sapiens, UniProt Q8IZF7); type: cell-based
[4] = biological target: panel of 320 non-olfactory GPCRs (Homo sapiens, UniProt Q7Z601); type: cell-based
[5] = biological target: panel of 320 non-olfactory GPCRs (Homo sapiens, UniProt P29371); type: cell-based
[6] = biological target: panel of 320 non-olfactory GPCRs (Homo sapiens, UniProt P32247); type: cell-based
[7] = biological target: panel of 320 non-olfactory GPCRs (Homo sapiens, UniProt P60893); type: cell-based
[8] = biological target: panel of 320 non-olfactory GPCRs (Homo sapiens, UniProt P25100); type: cell-based
[9] = biological target: panel of 320 non-olfactory GPCRs (Homo sapiens, UniProt Q8TDS5); type: cell-based
[10] = biological target: panel of 320 non-olfactory GPCRs (Homo sapiens, UniProt P41180); type: cell-based
[11] = biological target: panel of 320 non-olfactory GPCRs (Homo sapiens, UniProt O14842); type: cell-based
[12] = biological target: panel of 320 non-olfactory GPCRs (Homo sapiens, UniProt P50391); type: cell-based
[13] = biological target: panel of 320 non-olfactory GPCRs (Homo sapiens, UniProt Q96P69); type: cell-based
[14] = biological target: panel of 320 non-olfactory GPCRs (Homo sapiens, UniProt Q96LB2); type: cell-based
[15] = biological target: panel of 320 non-olfactory GPCRs (Homo sapiens, UniProt P08913); type: cell-based
[16] = biological target: panel of 320 non-olfactory GPCRs (Homo sapiens, UniProt Q9UPC5); type: cell-based
[17] = biological target: panel of 320 non-olfactory GPCRs (Homo sapiens, UniProt Q99705); type: cell-based
[18] = biological target: panel of 320 non-olfactory GPCRs (Homo sapiens, UniProt P08908); type: cell-based
[19] = biological target: panel of 320 non-olfactory GPCRs (Homo sapiens, UniProt Q8TDV5); type: cell-based
[20] = biological target: panel of 320 non-olfactory GPCRs (Homo sapiens, UniProt P25021); type: cell-based
[21] = biological target: panel of 320 non-olfactory GPCRs (Homo sapiens, UniProt P21462); type: cell-based
[22] = biological target: panel of 320 non-olfactory GPCRs (Homo sapiens, UniProt P51582); type: cell-based
[23] = biological target: panel of 320 non-olfactory GPCRs (Homo sapiens, UniProt Q8NGU9); type: cell-based
[24] = biological target: panel of 320 non-olfactory GPCRs (Homo sapiens, UniProt P43115); type: cell-based
[25] = biological target: panel of 320 non-olfactory GPCRs (Homo sapiens, UniProt P24530); type: cell-based
[26] = biological target: panel of 320 non-olfactory GPCRs (Homo sapiens, UniProt Q8NFN8); type: cell-based
[27] = biological target: panel of 320 non-olfactory GPCRs (Homo sapiens, UniProt Q8NFJ5); type: cell-based
[28] = biological target: panel of 320 non-olfactory GPCRs (Homo sapiens, UniProt P28336); type: cell-based
[29] = biological target: panel of 320 non-olfactory GPCRs (Homo sapiens, UniProt Q86SM8); type: cell-based
[30] = biological target: panel of 320 non-olfactory GPCRs (Homo sapiens, UniProt P41586); type: cell-based
[31] = biological target: panel of 320 non-olfactory GPCRs (Homo sapiens, UniProt Q16581); type: cell-based
[32] = biological target: panel of 320 non-olfactory GPCRs (Homo sapiens, UniProt Q9BZJ7); type: cell-based
[33] = biological target: panel of 320 non-olfactory GPCRs (Homo sapiens, UniProt Q8IZF4); type: cell-based
[34] = biological target: panel of 320 non-olfactory GPCRs (Homo sapiens, UniProt Q8TDU6); type: cell-based
[35] = biological target: panel of 320 non-olfactory GPCRs (Homo sapiens, UniProt P47900); type: cell-based
[36] = biological target: panel of 320 non-olfactory GPCRs (Homo sapiens, UniProt Q96AM1); type: cell-based
[37] = biological target: panel of 320 non-olfactory GPCRs (Homo sapiens, UniProt P32248); type: cell-based

Sequence of panel of 320 non-olfactory GPCRs (Homo sapiens, UniProt P08913) (P08913 whole entry): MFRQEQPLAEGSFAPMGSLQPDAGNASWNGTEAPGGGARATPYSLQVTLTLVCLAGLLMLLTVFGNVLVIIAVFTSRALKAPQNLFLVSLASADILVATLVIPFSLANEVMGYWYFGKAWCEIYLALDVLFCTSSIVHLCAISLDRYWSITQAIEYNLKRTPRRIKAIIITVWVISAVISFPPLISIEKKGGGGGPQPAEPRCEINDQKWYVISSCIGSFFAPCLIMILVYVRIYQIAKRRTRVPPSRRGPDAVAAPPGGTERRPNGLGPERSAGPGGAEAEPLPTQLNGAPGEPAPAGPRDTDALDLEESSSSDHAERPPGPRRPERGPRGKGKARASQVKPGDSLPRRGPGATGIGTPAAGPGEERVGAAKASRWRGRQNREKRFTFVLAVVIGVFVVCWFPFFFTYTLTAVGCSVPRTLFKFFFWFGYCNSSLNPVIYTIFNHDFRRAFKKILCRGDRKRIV
Sequence of panel of 320 non-olfactory GPCRs (Homo sapiens, UniProt P32247) (P32247 whole entry): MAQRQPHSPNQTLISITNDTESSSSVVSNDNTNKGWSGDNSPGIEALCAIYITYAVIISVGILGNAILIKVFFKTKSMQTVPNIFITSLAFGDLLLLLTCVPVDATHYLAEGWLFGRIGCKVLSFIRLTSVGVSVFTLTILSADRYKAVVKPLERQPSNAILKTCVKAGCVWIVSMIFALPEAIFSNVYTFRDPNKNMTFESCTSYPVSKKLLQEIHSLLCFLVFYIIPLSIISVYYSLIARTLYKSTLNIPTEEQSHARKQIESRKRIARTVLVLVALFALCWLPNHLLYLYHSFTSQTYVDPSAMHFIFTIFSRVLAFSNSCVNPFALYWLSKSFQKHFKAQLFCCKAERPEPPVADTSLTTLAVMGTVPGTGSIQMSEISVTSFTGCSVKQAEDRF
Sequence of panel of 320 non-olfactory GPCRs (Homo sapiens, UniProt Q96AM1) (Q96AM1 whole entry): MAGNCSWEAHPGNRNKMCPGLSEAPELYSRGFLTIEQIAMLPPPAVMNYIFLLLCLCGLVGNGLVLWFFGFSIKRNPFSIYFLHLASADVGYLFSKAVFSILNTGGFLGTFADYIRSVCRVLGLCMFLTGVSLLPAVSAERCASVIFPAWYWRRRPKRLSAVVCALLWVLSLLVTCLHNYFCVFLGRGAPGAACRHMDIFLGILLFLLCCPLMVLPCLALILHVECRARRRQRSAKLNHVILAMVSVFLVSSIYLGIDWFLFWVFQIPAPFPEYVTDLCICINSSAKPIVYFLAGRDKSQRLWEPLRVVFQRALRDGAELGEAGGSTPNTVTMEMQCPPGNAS
Sequence of panel of 320 non-olfactory GPCRs (Homo sapiens, UniProt P08908) (P08908 whole entry): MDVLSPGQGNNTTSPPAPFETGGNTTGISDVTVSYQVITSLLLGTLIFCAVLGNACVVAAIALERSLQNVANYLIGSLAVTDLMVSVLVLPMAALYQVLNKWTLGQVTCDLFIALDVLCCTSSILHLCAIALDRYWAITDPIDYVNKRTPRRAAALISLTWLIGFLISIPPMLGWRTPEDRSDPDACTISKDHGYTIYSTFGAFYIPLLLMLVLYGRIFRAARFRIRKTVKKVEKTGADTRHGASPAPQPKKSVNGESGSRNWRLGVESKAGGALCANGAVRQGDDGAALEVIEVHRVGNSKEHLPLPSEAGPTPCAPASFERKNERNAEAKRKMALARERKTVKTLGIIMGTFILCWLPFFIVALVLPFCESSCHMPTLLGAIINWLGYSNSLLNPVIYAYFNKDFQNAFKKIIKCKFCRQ
Sequence of panel of 320 non-olfactory GPCRs (Homo sapiens, UniProt P29371) (P29371 whole entry): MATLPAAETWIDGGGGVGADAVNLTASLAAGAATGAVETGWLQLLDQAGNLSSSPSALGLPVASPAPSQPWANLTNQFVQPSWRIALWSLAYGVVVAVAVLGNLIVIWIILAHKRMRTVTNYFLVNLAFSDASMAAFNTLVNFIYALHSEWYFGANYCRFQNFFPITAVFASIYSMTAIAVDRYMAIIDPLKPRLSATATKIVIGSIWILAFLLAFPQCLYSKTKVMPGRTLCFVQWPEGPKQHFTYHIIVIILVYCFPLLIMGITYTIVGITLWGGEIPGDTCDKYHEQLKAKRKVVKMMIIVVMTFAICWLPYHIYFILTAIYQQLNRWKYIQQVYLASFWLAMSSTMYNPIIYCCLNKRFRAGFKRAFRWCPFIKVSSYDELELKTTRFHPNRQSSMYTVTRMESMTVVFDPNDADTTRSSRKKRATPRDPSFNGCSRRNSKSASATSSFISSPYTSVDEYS
Sequence of panel of 320 non-olfactory GPCRs (Homo sapiens, UniProt Q8NFJ5) (Q8NFJ5 whole entry): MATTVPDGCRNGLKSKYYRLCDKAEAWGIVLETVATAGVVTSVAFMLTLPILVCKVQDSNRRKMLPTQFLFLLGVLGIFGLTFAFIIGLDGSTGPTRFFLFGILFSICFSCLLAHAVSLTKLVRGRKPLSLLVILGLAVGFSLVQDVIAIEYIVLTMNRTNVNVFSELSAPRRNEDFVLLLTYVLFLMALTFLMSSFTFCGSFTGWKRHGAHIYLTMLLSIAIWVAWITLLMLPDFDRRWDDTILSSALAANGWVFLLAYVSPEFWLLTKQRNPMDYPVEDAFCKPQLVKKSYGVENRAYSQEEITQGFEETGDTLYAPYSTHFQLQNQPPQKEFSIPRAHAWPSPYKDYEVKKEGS
Sequence of panel of 320 non-olfactory GPCRs (Homo sapiens, UniProt P41180) (P41180 20-1078): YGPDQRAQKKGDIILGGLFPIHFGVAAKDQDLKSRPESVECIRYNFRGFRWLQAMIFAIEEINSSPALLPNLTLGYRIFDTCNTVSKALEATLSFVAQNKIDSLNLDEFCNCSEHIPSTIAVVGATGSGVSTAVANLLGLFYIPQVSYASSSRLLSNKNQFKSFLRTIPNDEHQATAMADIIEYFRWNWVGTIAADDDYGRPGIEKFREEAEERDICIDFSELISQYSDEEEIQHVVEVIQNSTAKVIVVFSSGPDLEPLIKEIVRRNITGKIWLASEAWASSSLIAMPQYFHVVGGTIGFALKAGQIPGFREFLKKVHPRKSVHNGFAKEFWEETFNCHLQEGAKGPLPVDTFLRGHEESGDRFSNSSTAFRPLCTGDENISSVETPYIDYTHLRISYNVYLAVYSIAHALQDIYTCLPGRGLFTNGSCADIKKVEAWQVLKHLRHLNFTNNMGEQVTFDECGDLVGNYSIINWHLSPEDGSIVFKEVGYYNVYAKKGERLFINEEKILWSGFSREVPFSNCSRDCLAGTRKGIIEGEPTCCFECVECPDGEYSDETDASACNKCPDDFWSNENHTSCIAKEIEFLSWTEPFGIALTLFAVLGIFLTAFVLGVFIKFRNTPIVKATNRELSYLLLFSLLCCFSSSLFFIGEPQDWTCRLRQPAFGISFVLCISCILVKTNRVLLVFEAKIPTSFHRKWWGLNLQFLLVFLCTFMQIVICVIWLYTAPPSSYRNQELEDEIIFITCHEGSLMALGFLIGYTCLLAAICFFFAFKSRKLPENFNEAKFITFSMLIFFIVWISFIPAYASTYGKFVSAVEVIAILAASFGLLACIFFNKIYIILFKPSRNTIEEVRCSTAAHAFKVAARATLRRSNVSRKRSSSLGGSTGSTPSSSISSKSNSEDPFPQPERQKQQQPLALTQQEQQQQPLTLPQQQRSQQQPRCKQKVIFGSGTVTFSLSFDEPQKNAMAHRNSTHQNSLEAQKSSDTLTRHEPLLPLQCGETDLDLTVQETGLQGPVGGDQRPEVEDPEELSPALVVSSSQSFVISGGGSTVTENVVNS
Sequence of panel of 320 non-olfactory GPCRs (Homo sapiens, UniProt P25021) (P25021 whole entry): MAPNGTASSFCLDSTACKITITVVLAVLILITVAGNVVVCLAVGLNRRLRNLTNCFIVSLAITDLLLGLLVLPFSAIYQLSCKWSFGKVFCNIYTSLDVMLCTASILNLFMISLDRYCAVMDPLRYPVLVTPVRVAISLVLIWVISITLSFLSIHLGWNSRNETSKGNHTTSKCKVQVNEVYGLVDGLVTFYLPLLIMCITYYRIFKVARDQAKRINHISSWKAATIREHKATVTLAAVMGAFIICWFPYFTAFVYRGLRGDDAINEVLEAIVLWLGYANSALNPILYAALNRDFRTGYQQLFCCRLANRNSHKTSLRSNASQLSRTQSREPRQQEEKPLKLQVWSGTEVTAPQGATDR
Sequence of panel of 320 non-olfactory GPCRs (Homo sapiens, UniProt P60893) (P60893 whole entry): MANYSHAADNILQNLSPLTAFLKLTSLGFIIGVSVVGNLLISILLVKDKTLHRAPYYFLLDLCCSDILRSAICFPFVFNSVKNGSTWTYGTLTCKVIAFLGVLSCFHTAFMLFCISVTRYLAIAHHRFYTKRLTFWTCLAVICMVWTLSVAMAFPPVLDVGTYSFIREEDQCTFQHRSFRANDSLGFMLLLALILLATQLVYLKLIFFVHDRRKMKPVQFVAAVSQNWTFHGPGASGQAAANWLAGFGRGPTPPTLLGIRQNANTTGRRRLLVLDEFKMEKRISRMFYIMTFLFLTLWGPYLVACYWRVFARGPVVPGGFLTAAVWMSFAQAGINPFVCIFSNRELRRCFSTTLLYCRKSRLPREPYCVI
Sequence of panel of 320 non-olfactory GPCRs (Homo sapiens, UniProt Q96LB2) (Q96LB2 whole entry): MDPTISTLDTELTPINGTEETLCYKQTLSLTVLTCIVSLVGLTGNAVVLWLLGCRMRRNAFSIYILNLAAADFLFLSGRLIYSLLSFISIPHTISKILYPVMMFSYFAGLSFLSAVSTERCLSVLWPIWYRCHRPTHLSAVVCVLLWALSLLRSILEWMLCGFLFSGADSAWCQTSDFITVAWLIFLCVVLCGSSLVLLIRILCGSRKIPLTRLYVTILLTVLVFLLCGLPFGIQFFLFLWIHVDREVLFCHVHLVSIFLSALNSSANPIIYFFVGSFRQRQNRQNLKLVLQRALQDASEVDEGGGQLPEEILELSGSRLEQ
Sequence of panel of 320 non-olfactory GPCRs (Homo sapiens, UniProt Q8TDS5) (Q8TDS5 whole entry): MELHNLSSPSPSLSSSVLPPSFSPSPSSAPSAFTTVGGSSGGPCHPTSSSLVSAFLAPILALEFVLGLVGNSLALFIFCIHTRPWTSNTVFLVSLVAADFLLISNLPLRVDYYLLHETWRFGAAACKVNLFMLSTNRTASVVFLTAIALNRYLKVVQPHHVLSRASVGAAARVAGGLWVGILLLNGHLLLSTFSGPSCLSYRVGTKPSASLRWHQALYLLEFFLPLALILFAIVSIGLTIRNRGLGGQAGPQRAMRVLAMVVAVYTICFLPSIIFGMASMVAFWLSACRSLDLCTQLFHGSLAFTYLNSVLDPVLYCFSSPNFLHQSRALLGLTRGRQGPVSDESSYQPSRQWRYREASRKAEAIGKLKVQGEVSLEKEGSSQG

## COC(=O)[C@@](C)(NC(=O)c1cc(C)n(-c2cccc(C(F)(F)F)c2)n1)c1cccs1 [‘1350]
[1]
  recovery at 5 h, 1 μM: 107%
[2]
  Fold of Basal RLU: 0.5 and 0.4 and 0.6
[3]
  Fold of Basal RLU: 0.8 and 0.9 and 0.7 and 0.5
[4]
  Fold of Basal RLU: 1.2 and 0.9 and 1
[5]
  Fold of Basal RLU: 1.6 fold and 1.3 fold and 1.4 fold
[6]
  Fold of Basal RLU: 1.8 fold and 1.6 fold and 2.9 fold
[7]
  Fold of Basal RLU: 1 fold and 1.9 fold and 1.2 fold
[8]
  Fold of Basal RLU: 0.6 and 0.7 and 0.9 and 0.5
[9]
  Fold of Basal RLU: 0.4 and 0.8 and 0.5
[10]
  Fold of Basal RLU: 0.4 and 0.7 and 0.8
[11]
  Fold of Basal RLU: 1.4 and 0.7 and 1.1 and 0.8
[12]
  Fold of Basal RLU: 1.3 and 1.4 and 1 and 0.7
[13]
  Fold of Basal RLU: 0.8 and 1 and 1.1 and 1.4
[14]
  Fold of Basal RLU: 0.9 and 0.7 and 0.8 and 1.1
[15]
  Fold of Basal RLU: 1.8 fold and 1.4 fold and 1.6 fold and 1.2 fold
[16]
  Fold of Basal RLU: 0.7 fold and 1 fold and 1.1 fold and 1.4 fold
[17]
  Fold of Basal RLU: 1.3 and 1.1 and 0.7

## Cc1cc(C(=O)NC(C)(c2ccco2)c2ccco2)nn1-c1cccc(C(F)(F)F)c1 [‘4936]
[18]
  Fold of Basal RLU: 0.8 fold and 0.7 fold and 0.6 fold
[19]
  Fold of Basal RLU: 0.8 and 1.3
[20]
  Fold of Basal RLU: 1 and 1.2 and 1.1 and 0.6
[21]
  Fold of Basal RLU: 1.8 and 2.2 and 1.2 and 1.7
[22]
  Fold of Basal RLU: 1.4 fold and 1.8 fold and 1.7 fold
[23]
  Fold of Basal RLU: 0.7 and 0.6 and 0.5
[24]
  Fold of Basal RLU: 1.5 fold and 0.9 fold and 1 fold
[25]
  Fold of Basal RLU: 0.9 and 0.7 and 0.5
[26]
  Fold of Basal RLU: 0.8 and 1.2 and 0.6
[27]
  Fold of Basal RLU: 0.6 fold and 0.7 fold and 0.5 fold
[28]
  Fold of Basal RLU: 2.2 and 1.8 and 1.2 and 1.3
[29]
  Fold of Basal RLU: 0.9 fold and 1.5 fold and 1.3 fold
[30]
  Fold of Basal RLU: 0.5 fold and 0.9 fold and 0.7 fold and 0.8 fold
[31]
  Fold of Basal RLU: 0.5 and 0.6 and 0.3
[32]
  Fold of Basal RLU: 0.7 and 1.4 and 0.9
[33]
  Fold of Basal RLU: 0.9 and 1 and 0.8 and 0.6
[34]
  Fold of Basal RLU: 1.4 fold and 1.5 fold and 1.7 fold
[35]
  Fold of Basal RLU: 1.1 fold and 0.9 fold and 0.7 fold and 1 fold
[36]
  Fold of Basal RLU: 0.6 fold and 0.8 fold and 0.9 fold
[37]
  Fold of Basal RLU: 0.9 and 0.7 and 0.6
